Structures can show the parent of a compound that is named as a salt. Where two headings read alike, the source gives them in different places.
Settings: human, pH 7.4

Compound | The cumulative amount of test compounds (1 h) | The cumulative amount of test compounds (2 h) | The cumulative amount of test compounds (4 h) | The cumulative amount of test compounds (8 h)
CC(OC(=O)NCCc1ccc2c(c1)OC(=O)C(N)CC(=O)O2)OC(=O)C(C)C (stereo not drawn) [Compound-8a, 1-(((2-(4-amino-2,5-dioxo-2,3,4,5-tetrahydrobenzo[b][1,4]dioxocin-8-yl)ethyl)carbamoyl)oxy)ethyl isobutyrate hydrofluoride] | 0.63 mg | 1.22 mg | 2.43 mg | 4.83 mg
CC(OC(=O)NCCc1ccc2c(c1)OC(=O)CC(N)C(=O)O2)OC(=O)C(C)C (stereo not drawn) [Compound-8b, 1-(((2-(3-amino-2,5-dioxo-2,3,4,5-tetrahydrobenzo[b][1,4]dioxocin-8-yl)ethyl)carbamoyl)oxy)ethyl isobutyrate hydrofluoride] | 0.62 mg | 1.24 mg | 2.47 mg | 4.85 mg
CCOC(=O)NCCc1ccc(OC(=O)CNC)c(OC(=O)c2ccccc2)c1 [Compound-9b, 5-(2-((ethoxycarbonyl)amino)ethyl)-2-(2-methylamino)acetoxy)phenyl benzoate hydrochloride] | 0.62 mg | 1.26 mg | 2.48 mg | 4.95 mg
CC(C)OC(=O)[C@H](Cc1ccc(OC(=O)C(C)C)c(OC(=O)C(C)C)c1)NC(=O)C1CCN2CCCCC2C1.Cl (stereo partly drawn) [Compound-19, 4-((2S)-3-isopropoxy-3-2-(octahydro-1H-quinolizine-2-carboxamido)-3-oxopropyl)-1,2-phenylene bis(2-methylpropanoate) hydrochloride] | 0.48 mg | 0.98 mg | 2.02 mg | 4.09 mg
CC(C)OC(=O)[C@H](Cc1ccc2c(c1)OC(=O)CC(N)C(=O)O2)NC(=O)OC(C)OC(=O)C(C)C (stereo partly drawn) [Compound-20(a), (2S)-isopropyl 3-(3-amino-2,5-dioxo-2,3,4,5-tetrahydrobenzo[b][1,4]dioxocin-8-yl)-2-(((1-(isobutyryloxy)ethoxy)carbonyl)amino)propanoate hydrobromide] | 0.42 mg | 0.88 mg | 1.75 mg | 3.49 mg
CC(C)OC(=O)[C@H](Cc1ccc2c(c1)OC(=O)C(N)CC(=O)O2)NC(=O)OC(C)OC(=O)C(C)C (stereo partly drawn) [Compound-20(b), (2S)-isopropyl 3-(4-amino-2,5-dioxo-2,3,4,5-tetrahydrobenzo[b][1,4]dioxocin-8-yl)-2-(((1-(isobutyryloxy)ethoxy)carbonyl)amino)propanoate hydrobromide] | 0.43 mg | 0.85 mg | 1.78 mg | 3.52 mg
CNCC(=O)Oc1ccc(C[C@H](NC(=O)OC(C)OC(=O)C(C)C)C(=O)OC(C)C)cc1OC(=O)c1ccccc1 (stereo partly drawn) [Compound-21(a), 5-((2S)-2-(((1-(isobutyryloxy)ethoxy)carbonyl)amino-3-isopropoxy-3-oxopropyl)-2-(2-(methylamino)acetoxy)phenyl benzoate hydrochloride] | 0.52 mg | 1.08 mg | 2.17 mg | 4.37 mg
CNCC(=O)Oc1cc(C[C@H](NC(=O)OC(C)OC(=O)C(C)C)C(=O)OC(C)C)ccc1OC(=O)c1ccccc1 (stereo partly drawn) [Compound-21(b), 4-((2S)-2-(((1-(isobutyryloxy)ethoxy)carbonyl)amino-3-isopropoxy-3-oxopropyl)-2-(2-(methylamino)acetoxy)phenyl benzoate hydrochloride] | 0.51 mg | 1.05 mg | 2.08 mg | 4.19 mg
CCN(CC)CCOC(=O)c1ccccc1Nc1c(Cl)ccc(C)c1Cl [Compound-23, 2-(diethylamino)ethyl 2-[(2,6-dichloro-3-methylphenyl)amino]benzoate.acetate] | 0.85 mg | 1.69 mg | 3.38 mg | 6.85 mg
CCN(CC)CCOC(=O)CC1=C(C)/C(=C/c2ccc([S+](C)[O-])cc2)c2ccc(F)cc21 (stereo not drawn) [Compound-24] | 0.87 mg | 1.79 mg | 3.53 mg | 7.15 mg
CCN(CC)CCOC(=O)C(C)c1ccc(CC(C)C)cc1.Cl (stereo not drawn) [Compound-28, 2-(diethylamino)ethyl 2-(4-isobutylphenyl)propionate hydrochloride] | 1.15 mg | 2.28 mg | 4.57 mg | 9.19 mg

The remaining lines, values ahead:

The cumulative amount of test compounds (1 h) | The cumulative amount of test compounds (2 h) | The cumulative amount of test compounds (4 h) | The cumulative amount of test compounds (8 h) | Compound
0.67 mg | 1.33 mg | 2.67 mg | 5.25 mg | CNCC(=O)NCCc1ccc(OC(=O)c2ccccc2)c(OC(=O)c2ccccc2)c1.Cl [Compound-1, 4-(2-(2-(methylamino)acetamido)ethyl)-1,2,-phenylene dibenzoate hydrochloride]
0.61 mg | 1.23 mg | 2.49 mg | 5.01 mg | Br.CNCC(=O)OC(C)OC(=O)NCCc1ccc(OC(=O)c2ccccc2)c(OC(=O)c2ccccc2)c1 (stereo not drawn) [Compound-3, 4-(6-methyl-4,8-dioxo-5,7-dioxa-2,9-diazadecan-11-yl)-1,2,-phenylene dibenzoate hydrobromide]
0.59 mg | 1.21 mg | 2.45 mg | 4.93 mg | Cl.NC(Cc1ccccc1)C(=O)NCCc1ccc(OC(=O)c2ccccc2)c(OC(=O)c2ccccc2)c1 (stereo not drawn) [Compound-4, 4-(2-(2-amino-3-phenylpropanamido)ethyl)-1,2,-phenylene dibenzoate hydrochloride]
0.63 mg | 1.25 mg | 2.53 mg | 5.03 mg | CCC(CC)C(=O)Oc1ccc(CCNC(=O)C2CCNCC2)cc1OC(=O)C(CC)CC.Cl [Compound-6]
0.64 mg | 1.27 mg | 2.57 mg | 5.05 mg | CCC(CC)C(=O)Oc1ccc(CCNC(=O)OC2CCC3CCCCN3C2)cc1OC(=O)C(CC)CC (stereo not drawn) [Compound-7, 4-(2-((((-octahydro-1H-quinolizin-3-yl)oxy)carbonyl)amino)ethyl)-1,2,-phenylene bis(2-ethylbutanoate) acetate]
0.52 mg | 1.05 mg | 2.10 mg | 4.23 mg | CCCCC(=O)Oc1ccc(C[C@H](N)C(=O)OC(C)C)cc1OC(=O)CCCC.Cl [Compound-13, (S)-4-(2-amino-3-isopropoxy-3-oxopropyl)-1,2-phenylene dipentanoate hydrochloride]
0.60 mg | 1.21 mg | 2.44 mg | 4.82 mg | CCOC(=O)[C@@H](N)Cc1ccc(OC(C)=O)c(OC(C)=O)c1.Cl [Compound-14, (S)-4-(2-amino-3-ethoxy-3-oxopropyl)-1,2-phenylene diacetate hydrochloride]
0.56 mg | 1.13 mg | 2.23 mg | 4.49 mg | CC(C)OC(=O)[C@H](Cc1ccc(OC(=O)c2ccccc2)c(OC(=O)c2ccccc2)c1)NC(=O)CN.Cl [Compound-16]
0.58 mg | 1.15 mg | 2.33 mg | 4.71 mg | CCC(CC)OC(=O)[C@H](Cc1ccc(OC(=O)c2ccccc2)c(OC(=O)c2ccccc2)c1)NC(=O)C1CCCN1 (stereo partly drawn) [Compound-17, 4-((2S)-3-oxo-3-(pentan-3-yloxy)-2-(pyrrolidine-2-carboxamido)propyl)-1,2-phenylene dibenzoate hydrofluoride]
0.52 mg | 1.03 mg | 2.10 mg | 4.19 mg | CC(C)OC(=O)[C@H](Cc1ccc(OC(=O)c2ccccc2)c(OC(=O)c2ccccc2)c1)NC(=O)C1CCNCC1 [Compound-18, (S)-4-(3-isopropoxy-3-oxo-2-(piperidine-4-carboxamido)propyl)-1,2-phenylene dibenzoate hydrochloride]
0.45 mg | 0.89 mg | 1.78 mg | 3.61 mg | CC(C)OC(=O)[C@H](Cc1ccc(OC(=O)c2ccccc2)c(OC(=O)c2ccccc2)c1)NC(=O)OC1CCN2CCCCC12 (stereo partly drawn) [Compound-22, 4-((2S)-3-isopropoxy-2-((((octahydroindolizin-1-yl)oxy)carbonyl)amino)-3-oxopropyl)-1,2-phenylene dibenzoate acetate]
1.15 mg | 2.31 mg | 4.58 mg | 9.22 mg | CC(C(=O)OCCN(C)C)c1cccc(Oc2ccccc2)c1.Cl (stereo not drawn) [Compound-25, 2-(dimethylamino)ethyl 2-(3-phenoxyphenyl) propionate.hydrochloride]
1.17 mg | 2.33 mg | 4.65 mg | 9.31 mg | CC(C(=O)SCCN(C)C)c1cccc(Oc2ccccc2)c1.Cl (stereo not drawn) [Compound-26]

Source: patent US11685739B2, “High penetration drugs and their compositions thereof for treatment of Parkinson diseases” (TECHFIELDS PHARMA CO., LTD, priority 2013, dated 2023)
